Calls of active or inactive are those of the source. No cut-off for these calls is given here.

Data set [1] deals with Amyloid-beta precursor protein (Homo sapiens) (UniProt P05067). Put plainly: Inhibition of amyloid beta (1 to 42 residues) (unknown origin) aggregation assessed as reduction in massive oligomers measured after 3 days by AFM analysis. The conditions noted are these: time 3.0 day.
The nature of data set [2]: Acute toxicity in female Wistar rat assessed as histopathological changes in brain at 100 to 500 mg/kg, po measured after 14 days. The conditions noted are these: in vivo, 336 h, dose 100-500 mg/kg, time 14 day. The class given is organism-based.
Data set [3] has as its system Rattus norvegicus. Put plainly: Reversal of amyloid beta (1 to 42 residues) induced cognitive impairment in female Wistar rat assessed as increase in neuronal arrangements in brain at 20 mg/kg, po pretreated with amyloid beta for 7 days followed by compound administration and measured after 5 days by Nissls staining based light microscopic analysis. The format is functional, organism-based. The conditions noted are these: time 5.0 day.

The nature of data set [4]: Elimination half life in male Wistar rat at 20 mg/kg, po measured upto 32 hrs by high-performance liquid chromatography. The class given is ADME, organism-based. Conditions: in vivo, read-out: beta t1/2 (converted).
Data set [5] concerns Rattus norvegicus. Put plainly: Reversal of amyloid beta (1 to 42 residues) induced cognitive impairment in female Wistar rat assessed as reduction in BACE-1 level in brain hippocampus at 20 mg/kg, po pretreated with amyloid beta for 7 days followed by compound administration and measured after 5 days by immunohistochemistry analysis. The class given is functional, organism-based. The conditions noted are these: time 5.0 day.

A short description of data set [6]: Acute toxicity in female Wistar rat assessed as histopathological changes in heart at 100 to 500 mg/kg, po measured after 14 days. The class given is organism-based. Conditions: in vivo, 336 h, dose 100-500 mg/kg, time 14 day.
A short description of the next data set: in vitro. The conditions noted are these: PAMPA. On the technique in general: In PAMPA a lipid-coated filter parts donor from acceptor wells.
The nature of data set [7]: Drug concentration in male Wistar rat brain homogenate at 20 mg/kg, po measured after 4 days. The format is ADME, organism-based. The conditions noted are these: time 4 day, read-out: Ct.
Data set [8] is described as follows: Drug concentration in male Wistar rat brain homogenate at 10 mg/kg, po measured after 4 days. Conditions: time 4 day, read-out: Ct. The class given is ADME, organism-based.
Data set [9] concerns Drosophila melanogaster. Put plainly: Reversal of ey-GAL4 driven UAS-amyloid beta induced cellular toxicity in Drosophila melanogaster Oregon R-positive model assessed as increase in cell viability in gut at 5 uM by MTT assay relative to control. The format is functional. (Formazan colour is commonly taken as a measure of viable cells.)
Data set [10] is described as follows: Cmax in male Wistar rat at 20 mg/kg, po measured upto 32 hrs by high-performance liquid chromatography. The conditions noted are these: in vivo. The format is ADME, organism-based.
In the next data set the target is Acetylcholinesterase (Homo sapiens, UniProt P22303). Put plainly: Inhibition of human AChE using acetylthiocholine iodide as substrate assessed as reversal of enzyme activity by measuring remaining activity at 10 to 100 times IC50 incubated for 30 mins followed by dilution to 0.1 to 1 times IC50 with substrate.
Chain of Acetylcholinesterase (P22303 whole entry): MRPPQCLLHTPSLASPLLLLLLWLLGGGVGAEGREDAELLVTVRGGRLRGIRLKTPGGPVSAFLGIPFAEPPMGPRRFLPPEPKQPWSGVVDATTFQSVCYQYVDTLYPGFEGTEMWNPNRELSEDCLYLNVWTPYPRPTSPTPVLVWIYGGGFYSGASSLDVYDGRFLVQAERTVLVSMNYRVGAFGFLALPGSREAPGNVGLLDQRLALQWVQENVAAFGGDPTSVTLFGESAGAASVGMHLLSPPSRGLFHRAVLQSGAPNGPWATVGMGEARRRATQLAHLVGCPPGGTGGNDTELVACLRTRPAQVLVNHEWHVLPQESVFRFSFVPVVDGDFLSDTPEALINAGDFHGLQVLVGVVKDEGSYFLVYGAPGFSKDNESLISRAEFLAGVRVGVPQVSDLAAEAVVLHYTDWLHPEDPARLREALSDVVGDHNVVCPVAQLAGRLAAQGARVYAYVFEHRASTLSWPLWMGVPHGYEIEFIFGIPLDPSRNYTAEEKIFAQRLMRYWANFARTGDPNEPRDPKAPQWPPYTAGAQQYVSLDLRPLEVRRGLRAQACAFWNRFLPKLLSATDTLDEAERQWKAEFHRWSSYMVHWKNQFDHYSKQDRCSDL
A further data set has as its target Beta-secretase 1 (Homo sapiens, UniProt P56817). Put plainly: Inhibition of human BACE-1 measured after 2 hrs by FRET assay.
Data set [11] deals with Amyloid-beta precursor protein (Homo sapiens) (UniProt P05067). Put plainly: Inhibition of human AChE induced amyloid beta (1 to 42 residues) (unknown origin) aggregation assessed as reduction in NFI measured after 48 hrs by thioflavin T based fluorescence analysis. The conditions noted are these: dose 5-20 µM.
The nature of data set [12]: Acute toxicity in female Wistar rat assessed as effect on hepatic functional parameters at 100 to 500 mg/kg, po measured after 14 days. The class given is organism-based. The conditions noted are these: in vivo, 336 h, dose 100-500 mg/kg, time 14 day.
Data set [13] relates to Drosophila melanogaster. Put plainly: Reversal of ey-GAL4 driven UAS-amyloid beta induced cellular toxicity in Drosophila melanogaster Oregon R-positive model assessed as reduction in mild ommatidial death eye phenotype at 15 uM by trinocular stereo-zoom microscope relative to control. The format is functional. More on the design: scale not given: the % may be the effect or the level left.

Data set [14] relates to Drosophila melanogaster. Put plainly: Reversal of ey-GAL4 driven UAS-amyloid beta induced cellular toxicity in Drosophila melanogaster Oregon R-positive model assessed as reduction in severe ommatidial death eye phenotype at 10 uM by trinocular stereo-zoom microscope relative to control. The class given is functional. More on the design: scale not given: the % may be the effect or the level left.

Chain of Amyloid-beta precursor protein (Homo sapiens) (P05067 whole entry, the tested form may be a part): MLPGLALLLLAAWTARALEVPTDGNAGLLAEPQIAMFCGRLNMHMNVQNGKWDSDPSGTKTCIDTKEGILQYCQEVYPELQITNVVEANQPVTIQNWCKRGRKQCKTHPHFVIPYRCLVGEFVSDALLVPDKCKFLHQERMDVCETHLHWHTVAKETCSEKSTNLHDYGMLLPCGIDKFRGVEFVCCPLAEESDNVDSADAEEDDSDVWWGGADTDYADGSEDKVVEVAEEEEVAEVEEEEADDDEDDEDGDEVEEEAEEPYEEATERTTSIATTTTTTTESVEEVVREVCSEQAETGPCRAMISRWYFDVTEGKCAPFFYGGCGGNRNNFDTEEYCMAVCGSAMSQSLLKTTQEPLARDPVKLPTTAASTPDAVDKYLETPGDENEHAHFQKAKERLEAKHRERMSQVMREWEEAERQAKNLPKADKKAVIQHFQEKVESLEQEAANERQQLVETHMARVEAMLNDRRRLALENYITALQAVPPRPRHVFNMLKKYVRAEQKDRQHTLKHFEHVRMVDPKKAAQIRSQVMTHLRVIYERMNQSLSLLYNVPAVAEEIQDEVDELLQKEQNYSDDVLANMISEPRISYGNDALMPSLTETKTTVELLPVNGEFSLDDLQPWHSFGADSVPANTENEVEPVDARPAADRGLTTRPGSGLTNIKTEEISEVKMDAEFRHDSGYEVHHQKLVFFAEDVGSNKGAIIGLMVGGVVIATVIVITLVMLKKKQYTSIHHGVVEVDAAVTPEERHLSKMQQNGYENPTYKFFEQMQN
Chain of Beta-secretase 1 (P56817 whole entry, the tested form may be a part): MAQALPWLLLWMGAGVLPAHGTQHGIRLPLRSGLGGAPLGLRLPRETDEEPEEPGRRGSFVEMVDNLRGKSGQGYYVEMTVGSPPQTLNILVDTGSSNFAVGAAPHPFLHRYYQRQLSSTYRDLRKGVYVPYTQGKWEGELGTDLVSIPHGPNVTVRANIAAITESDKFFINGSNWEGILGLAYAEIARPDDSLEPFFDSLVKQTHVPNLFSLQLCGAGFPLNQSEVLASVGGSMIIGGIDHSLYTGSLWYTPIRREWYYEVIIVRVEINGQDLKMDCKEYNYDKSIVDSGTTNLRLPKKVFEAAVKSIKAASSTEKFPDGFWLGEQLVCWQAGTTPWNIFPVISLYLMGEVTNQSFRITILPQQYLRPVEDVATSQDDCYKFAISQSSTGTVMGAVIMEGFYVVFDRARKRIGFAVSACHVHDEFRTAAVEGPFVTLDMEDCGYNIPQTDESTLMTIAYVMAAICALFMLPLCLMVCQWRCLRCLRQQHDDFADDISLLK

By Papp is commonly meant a coefficient for how fast a substance crosses the barrier. Usually Cmax stands for the highest concentration seen after dosing. In general, IC50 refers to the midpoint of a concentration-inhibition curve. In the case of `COc1cc2ncnc(N3CCN(Cc4ccccc4)CC3)c2cc1OC`, in data set [1], the inhibition entry was “Active”. The Activity entry is “Non-Toxic” in data set [2]; “Non-Toxic” in [6]; 82% in the data set on Drosophila melanogaster [9]; above 60% on Acetylcholinesterase; “Non-Toxic” in data set [12]; 30% with Drosophila melanogaster [13]. Also, in the data set on Drosophila melanogaster [14], the Activity is given as 23.3%. Also, the result in the data set with Rattus norvegicus [3] and in the data set with Rattus norvegicus [5] was Active. Moreover, in data set [4], the half-life is 3.11 h. The Papp at 18 h, 25 ug/ml in “in vitro” was 6.03 ×10⁻⁶ cm/s. The concentration at 96 h in data set [7] worked out at 977 ng/mL; in [8] it was 633 ng/mL. In [10], the peak level (Cmax) was 1340 ng/mL. On Beta-secretase 1, this compound showed an IC50 of 231 nM. In addition, the inhibition result in [11] was “Dose-Dependent Effect”.
